Target: GABAC receptor ρ1 subunit (Homo sapiens, UniProt P24046)
Assay: two-electrode voltage clamp in Xenopus oocytes expressing human ρ[…]
Format: cell-based

Chain of GABAC receptor ρ1 subunit (P24046 22-479): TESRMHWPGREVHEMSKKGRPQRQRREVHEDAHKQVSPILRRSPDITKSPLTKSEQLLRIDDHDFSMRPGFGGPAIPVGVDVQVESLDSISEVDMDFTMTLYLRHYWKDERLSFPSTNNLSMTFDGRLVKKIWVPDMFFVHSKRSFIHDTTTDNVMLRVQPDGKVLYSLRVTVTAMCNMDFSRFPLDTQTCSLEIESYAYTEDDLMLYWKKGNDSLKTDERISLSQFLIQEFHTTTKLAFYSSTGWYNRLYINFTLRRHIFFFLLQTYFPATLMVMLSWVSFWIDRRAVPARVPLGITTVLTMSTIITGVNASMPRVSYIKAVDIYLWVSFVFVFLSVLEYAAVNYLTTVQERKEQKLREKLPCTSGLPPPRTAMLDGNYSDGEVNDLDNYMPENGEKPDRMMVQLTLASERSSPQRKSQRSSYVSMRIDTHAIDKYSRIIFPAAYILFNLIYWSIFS

## CC(C)=CCC[C@](C)(O)[C@H]1CC[C@]2(C)[C@@H]1[C@H](O)C[C@@H]1[C@@]3(C)CC[C@H](O)C(C)(C)[C@@H]3[C@@H](O)C[C@]12C [M4, protopanaxatriol]
  IC50: 45.7 ± 3.9 µM

From paper PMC3634089 (The Korean Journal of Physiology & Pharmacology : …, 2013)
